One test addresses DHODH (Homo sapiens (Human), UniProt Q02127). The experiment in a line: DHODH activity assay (coupled enzyme assay, DCIP reduction, absorbance at 610 nm). Format: biochemical. The following applies: for inhibition at 10 µM: compound at 10 uM, read-out: inh @ 10 uM hDHODH (%).
Another test relates to Jurkat cells. The experiment in a line: Measurement of cell proliferation (Jurkat cell), XTT assay. The conditions noted are these: Homo sapiens, Jurkat; for EC50: 72 h, XTT cell viability; for inhibition at 1 µM: compound at 1 uM, read-out: % inh Jurkat_cells @ 1 uM (%). Format: cell-based. Put shortly: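 Jurkat T cells, 100,000 per well in RPMI with 10% FBS, exposed 72 h at 37 °C to serial compound dilutions (typically from 10 μM, half-log steps, triplicate) at 0.25–0.5% DMSO. Viability by XTT/PMS, A465 after 2 h, media background subtracted, untreated cells as 100%; EC50 from curve fit.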

DHODH, sequence (Q02127 whole entry): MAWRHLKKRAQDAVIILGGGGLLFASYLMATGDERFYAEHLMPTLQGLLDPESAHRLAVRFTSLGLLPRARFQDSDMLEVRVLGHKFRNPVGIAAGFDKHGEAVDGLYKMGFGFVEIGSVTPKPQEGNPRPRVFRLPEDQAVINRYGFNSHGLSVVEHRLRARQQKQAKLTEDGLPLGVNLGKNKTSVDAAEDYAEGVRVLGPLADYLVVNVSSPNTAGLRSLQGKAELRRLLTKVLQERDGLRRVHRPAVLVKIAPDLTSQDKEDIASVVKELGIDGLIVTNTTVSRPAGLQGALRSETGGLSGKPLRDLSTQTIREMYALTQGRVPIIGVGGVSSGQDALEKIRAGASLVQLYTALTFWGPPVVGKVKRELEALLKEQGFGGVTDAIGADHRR

Broadly, the IC50 is the concentration that inhibits the measured activity by half. As usually defined, the EC50 is the concentration needed to bring the measured effect to its halfway point. Low readings indicate an effect from little substance, high ones a need for much substance. With `Cc1cc(C(=O)O)c2nc(-c3c(F)cc(-c4ccccc4)cc3F)[nH]c2c1` [I48], at DHODH, the IC50 came out at 177 nM and the inhibition at 10 µM came to 100%. For the same molecule, in the test with Jurkat cells, the concentration giving a half-maximal response (EC50) came out at 393 nM and the inhibition at 1 µM was 88.1%.
With `O=C(O)c1cc(Cl)cc2[nH]c(-c3ccc(-c4ccccc4F)cc3)nc12` [I45], on DHODH, the half-maximal inhibitory concentration (IC50) stood at 949 nM and the inhibition at 10 µM came out at 92.2%. In addition, the inhibition at 1 µM in the test with Jurkat cells stood at 49.5%.
Take `Cc1ccc(C)n1-c1c(F)c(F)c(-c2nc3cccc(C(=O)O)c3[nH]2)c(F)c1F` [I110]: at DHODH, the IC50 is 110 nM and the inhibition at 10 µM turned out to be 106%. Besides, the inhibition at 1 µM in the test with Jurkat cells worked out at 97%.
Take `O=C(O)c1cccc2nc(-c3ccc(-c4ccc(F)cc4F)cc3)[nH]c12` [I32]: at DHODH, the inhibition at 10 µM turned out to be 69.6%. Also, the inhibition at 1 µM with Jurkat cells worked out at 21.1%.
Taken in the same sequence, the figures for `COc1cccc(-c2ccc(-c3nc4c(C(=O)O)cccc4[nH]3)cc2)c1` [I11] were 13.7% and 9.4%.
For `Cc1cc(C(=O)O)c2[nH]c(-c3ccc(Oc4ccc(C#N)cc4)cc3)nc2c1` [I78, 2-[4-(4-Cyano-phenoxy)-phenyl]-6-methyl-3H-benzoimidazole-4-carboxylic acid] the same measures were 58.5% and 22.2%.
Taken in the same sequence, the figures for `O=C(O)c1cccc2[nH]c(-c3ccc(-c4ccsc4)cc3)nc12` [I22] were 57.3% and 15.3%.
Regarding `Cc1cc(C(=O)O)c2nc(-c3ccc(-c4ccc(CO)cc4)cc3)[nH]c2c1` [I170], the inhibition at 10 µM at DHODH came to 84%. Also, the inhibition at 1 µM with Jurkat cells is 57%.
Take `O=C(O)c1cccc2[nH]c(-c3cccc(Oc4ccccc4)c3)nc12` [I9]: at DHODH, the half-maximal inhibitory concentration (IC50) is 7200 nM and the inhibition at 10 µM stood at 64%. Further, the inhibition at 1 µM with Jurkat cells amounted to 20%.
For `Cc1cc(C(=O)O)c2nc(-c3ccc(-c4ccc(OCCCN5CCCCC5)cc4)cc3)[nH]c2c1` [I88] the same measures were 1630 nM, 82.9% and 40.3%.
Turning to `O=C(O)c1cccc2[nH]c(-c3ccc(-c4ccc(Oc5ccccn5)cc4)cc3)nc12` [I172], on DHODH, the inhibition at 10 µM is 60%. Moreover, the inhibition at 1 µM in the test with Jurkat cells was determined as 21%.
For `Cc1cc(C(=O)O)c2[nH]c(-c3c(F)c(F)c(-c4ccc(O)cc4)c(F)c3F)nc2c1` [I96], at DHODH, the midpoint of inhibition, the IC50, lay at 16 nM and the inhibition at 10 µM stood at 98.4%. Further, the inhibition at 1 µM in the test with Jurkat cells worked out at 102%.
For the molecule `Cc1cc(C(=O)O)c2nc(-c3c(F)c(F)c(-c4ccc(F)c(F)c4)c(F)c3F)[nH]c2c1` [I145], at DHODH, half-maximal inhibition (IC50) required 314 nM and the inhibition at 10 µM turned out to be 95.6%. Further, the inhibition at 1 µM in the test with Jurkat cells stood at 75.8%.
Consider `O=C(O)c1cccc2[nH]c(-c3ccc(-c4cccs4)cc3)nc12` [I192], for which, at DHODH, the inhibition at 10 µM turned out to be 74.7%. Also, in the test on Jurkat cells, the inhibition at 1 µM came out at 26.1%.
With `O=C(O)c1cccc2[nH]c(-c3c(F)c(F)c(-c4cccc(OC(F)(F)F)c4)c(F)c3F)nc12` [I148], on DHODH, the IC50 amounted to 218 nM and the inhibition at 10 µM was found to be 103%. The inhibition at 1 µM with Jurkat cells is 88.6%.
Regarding `N#Cc1cccc2nc(-c3ccc(-c4ccccc4)cc3)[nH]c12` [I38], on DHODH, the inhibition at 10 µM came out at 16.8%. For the same molecule, in the test on Jurkat cells, the inhibition at 1 µM is 8%.
With `O=C(O)c1cccc2[nH]c(-c3ccc(Nc4ccccc4)cc3)nc12` [I55], at DHODH, the concentration for half-maximal inhibition (IC50) is 27100 nM and the inhibition at 10 µM stood at 33.2%. For the same molecule, the inhibition at 1 µM in the test with Jurkat cells is 6.8%.
Turning to `Cc1cc(C(=O)O)c2nc(-c3ccc(-c4ccccc4)cc3)[nH]c2c1` [I14], on DHODH, the midpoint of inhibition, the IC50, lay at 304 nM and the inhibition at 10 µM is 102%. Moreover, in the test on Jurkat cells, the midpoint of the response, the EC50, lay at 263 nM and the inhibition at 1 µM was 76.9%.
Take `Cc1cc(C(=O)O)c2nc(-c3ccc(-c4ccc(Oc5ccccc5C(=O)O)cc4)cc3)[nH]c2c1` [I137]: on DHODH, the IC50 came to 2240 nM and the inhibition at 10 µM worked out at 65.1%. Moreover, the inhibition at 1 µM with Jurkat cells was 31%.
Turning to `Cc1cc(C(=O)O)c2nc(-c3ccc(-c4ccc(NC(=O)C5CCNCC5)cc4)cc3)[nH]c2c1` [I90], at DHODH, it took 3690 nM to reach half-maximal inhibition (IC50) and the inhibition at 10 µM is 78.8%. The inhibition at 1 µM in the test on Jurkat cells came to 44.5%.
`Cc1cc(C(=O)NC2CC2)c2[nH]c(-c3c(F)c(F)c(-c4ccccc4)c(F)c3F)nc2c1` [I163]: the inhibition at 10 µM on DHODH came to 75.6%. For the same molecule, the inhibition at 1 µM in the test with Jurkat cells was 37.7%.
Regarding `Cc1cc(C(=O)O)c2[nH]c(-c3ccc(-c4ccc(F)cc4F)cc3)nc2c1` [I33], at DHODH, the IC50 is 1420 nM and the inhibition at 10 µM is 91.3%. The inhibition at 1 µM in the test on Jurkat cells is 50.5%.
`CC(=O)c1cccc2[nH]c(-c3ccc(-c4ccccc4)cc3)nc12` [I69, 1-(2-Biphenyl-4-yl-1H-benzoimidazol-4-yl)-ethanone]: the inhibition at 10 µM on DHODH is 12.5%. In addition, the inhibition at 1 µM in the test on Jurkat cells was 9.2%.
For `O=C(O)c1cccc2nc(-c3ccc(-c4ccc(F)cc4F)cc3F)[nH]c12` [I30] the same measures were 68.1% and 31.5%.
For `Cc1cc(C(=O)O)c2nc(-c3ccc(-c4ccccc4O)cc3)[nH]c2c1` [I167] the same measures were 82.7% and 34.5%.
For `Cc1cc(C(=O)O)c2nc(-c3ccc(-c4ccc(OCCCN5CCCC5)cc4)cc3)[nH]c2c1` [I152], the inhibition at 10 µM at DHODH was determined as 47.2%. Moreover, the inhibition at 1 µM in the test on Jurkat cells was 23.8%.
As for `Cc1cc(C(=O)O)c2nc(-c3ccc(-c4ccc(Oc5ccccc5C=O)cc4)cc3)[nH]c2c1` [I142], on DHODH, the half-inhibitory concentration (IC50) is 1050 nM and the inhibition at 10 µM came out at 84.7%. In the test with Jurkat cells, the inhibition at 1 µM was found to be 54.5%.
Turning to `O=C(O)c1cccc2[nH]c(-c3ccc(-c4ccncc4)cc3)nc12` [I57], the inhibition at 10 µM on DHODH stood at 58%. Besides, in the test with Jurkat cells, the inhibition at 1 µM was determined as 12.6%.
`Cc1cc(-c2nnc(O)o2)c2nc(-c3c(F)c(F)c(-c4ccccc4)c(F)c3F)[nH]c2c1` [I159]: the inhibition at 10 µM on DHODH turned out to be 32.3%. Moreover, in the test on Jurkat cells, the inhibition at 1 µM is 13.4%.
Taken in the same sequence, the figures for `Cc1cc(C(=O)O)c2nc(-c3c(F)c(F)c(Oc4ccccc4)c(F)c3F)[nH]c2c1` [I189] were 39.8% and 3%.
Taken in the same sequence, the figures for `O=C(O)c1cccc2nc(-c3cccc4ccccc34)[nH]c12` [I39] were 19.9% and 12.3%.
As to `Cc1cc(-c2nnn[nH]2)c2nc(-c3c(F)c(F)c(-c4ccccc4)c(F)c3F)[nH]c2c1` [I103], on DHODH, half-maximal inhibition (IC50) required 1200 nM and the inhibition at 10 µM is 107%. For the same molecule, in the test with Jurkat cells, the inhibition at 1 µM was 64.2%.
For `Cc1cc(C(=O)O)c2nc(-c3ccc(-c4nc5ccccc5s4)cc3)[nH]c2c1` [I47], the inhibition at 10 µM on DHODH came to 40.3%. Besides, the inhibition at 1 µM with Jurkat cells amounted to 17.3%.
For the molecule `Cc1cc(C(=O)O)c2nc(-c3ccc(-c4cccc(F)c4F)cc3)[nH]c2c1` [I52], on DHODH, half-maximal inhibition (IC50) required 898 nM and the inhibition at 10 µM worked out at 84.4%. In addition, in the test with Jurkat cells, the inhibition at 1 µM worked out at 56.7%.
In the case of `COC(=O)c1cc(C)cc2[nH]c(-c3c(F)c(F)c(-c4ccccc4)c(F)c3F)nc12` [I176], at DHODH, the inhibition at 10 µM turned out to be 45%. In addition, the inhibition at 1 µM in the test with Jurkat cells was 7%.
As to `O=C(O)c1cccc2nc(-c3ccc(-c4ccccc4)cc3)oc12` [I19], at DHODH, 3030 nM corresponded to half-maximal inhibition (IC50) and the inhibition at 10 µM was 80.1%. In addition, in the test with Jurkat cells, the inhibition at 1 µM was 34.3%.
